Reference: patent publication US12544373B2, “Treatment of cancer, inflammatory diseases and autoimmune diseases” (Usher III Initiative, Inc., priority 2020, dated 2026)
Where two headings read alike, the source gives them in different places.

Tests used:
Type in all cases: cell-based, human
[1] = tested on: OVXF 899; experiment: CellTiter-Blue Cell Viability Assay (Example 2), ovarian; conditions: for T/C %: 72 h
Description: (§1) The CellTiter-Blue® Cell Viability Assay was used to assess the viability of cells from various cancer cell lines, in the presence or absence of Compound 85 (at different concentrations). This assay provides a homogeneous, fluorometric method for estimating the number of viable cells present in multi-well plates. Viable cells retain the ability to reduce resazurin to resorufin, which is highly fluorescent. […] The fluorescence produced is proportional to the number of viable cells. There is a linear relationship between cell number and fluorescence.
(§2) Cancer cells (see Table 6) were harvested from exponential phase cultures, counted and plated in 96 well flat-bottom microtiter plates, at a cell density 6,000-20,000 cells/well, depending on the cell line's growth rate. The culture medium was supplemented with 10% (v/v) foetal calf serum and 50 μg/mL gentamicin (140 μL/well). Cultures were incubated at 37° C. and 5% CO2 in a humidified atmosphere.
(§3) Compound 85 was serially diluted in DMSO, and five Compound 85 concentrations in half-log increments were used: 0.03 μM, 0.09 μM, 0.30 μM, 1.0 μM, and 3.0 μM. After 24 h, 10 μL of Compound 85 (dissolved in DMSO) or control (DMSO) medium were added, in duplicates, and left on the cells for another 72 h. Compound 85 solutions were added to the assay plates using a Tecan Freedom EVO 200 robotic platform. The DMSO concentration was kept constant at 0.3% v/v across the assay plate.
(§4) After incubation of up to 72 hours, fluorescence (FU) was measured using the EnSpire® multimode plate reader (Perkin Elmer) (excitation λ=570 nm, emission λ=600 nm).
(§5) Cancer cell lines used: Compound 85's anti-cancer effect was tested in 20 human cancer-cell lines representing nine cancer types (Table 6).
(§6) The percentage of viable cells in the presence of Compound 85 (Test condition, T), at different concentrations, are presented in Table 7 and expressed as a percentage of the number of viable cells in the presence of DMSO without Compound 85 (Control condition, C).
(§7) The relative IC50 is determined as the Compound 85 concentration giving a response halfway between the maximum cell viability signal (i.e., a 100% cell viability, no Compound 85 response) and the minimal viability signal (i.e. maximum cell viability inhibition achieved by Compound 85), in a sigmoidal concentration-effect curve.
(§8) The absolute IC50 is determined as the concentration that is associated with a T/C ratio of 50%.

[2] = tested on: OVXF A2780; experiment: as above; conditions: for T/C %: 72 h
Description: as §1, §2, §3, §4, §5, §6, §7, §8

[3] = tested on: CXF HCC-2998; experiment: CellTiter-Blue 2D monolayer assay (Example 1), colon; conditions: for Test/Control (%): 72 h
Protocol: (§9) Compound 85 was assessed in 10 human tumor cell lines (see Table 3) for anti-cancer activity in vitro using a CellTiter-Blue® based 2D monolayer assay.
(§10) CellTiter-Blue® Cell Viability Assay: Tumor cells were grown at 37° C. in a humidified atmosphere with 5% CO2 in RPMI medium, supplemented with 10% (v/v) fetal calf serum and 50 μg/ml gentamicin (140 μl/well). Cultures were incubated at 37° C. and 5% CO2 in a humidified atmosphere. After 24 hours, 10 μl of Compound 85 was added, and left on the cells for another 72 hours (incubation period). Compound 85 was tested at 5 concentrations (0.003 μM, 0.03 μM, 0.3 μM, 3 μM, and 30 μM) and serially diluted in DMSO, mixed with cell culture medium, and added to the assay plates by using a Tecan Freedom EVO 200 robotic platform. The DMSO concentration was kept constant at 0.3% yip across the assay plate. Every 96 well plate included six DMSO-treated control wells and Compound 85-treated wells in duplicate at 5 concentrations. Viability of cells was quantified using the CellTiter-Blue® cell viability assay (Promega G8081). After incubation of cells, the CellTiter-Blue® reagent was brought to ambient temperature. Next, 20 μl of CellTiter-Blue® reagent were added to each well. After incubation tier up to 4 hours, fluorescence (FU) was measured using the EnSpire® multimode plate reader (Perkin Elmer) ([…]).
(§11) Data Evaluation: Sigmoidal concentration-response curves were fitted to the data points (test-versus-control; T/C values) obtained for each tumor model using 4 parameter non-linear curve fit (Charles River DRS Datawarehouse Software). Drug effects are expressed in terms of the percentage of the fluorescence signal, obtained by comparison of the mean signal in the treated wells with the mean signal of the untreated controls (T/C-value [%]) (Table 4). IC50 and IC70 values were reported as relative and absolute IC50 and IC70 values (Table 5). The absolute IC50 and IC70 values reflect the concentration of Compound 85 that achieves T/C=50% and T/C=30%, respectively. The relative IC50 value is the concentration of Compound 85 that gives a response half way between the top and bottom plateau of the sigmoidal concentration-response curve (inflection point of the curve).

[4] = tested on: CXF LS 174T; experiment: as above; conditions: for Test/Control (%): 72 h
Protocol: as §9, §10, §11

[5] = tested on: OVXF 899; experiment: CellTiter-Blue 2D monolayer assay (Example 1), ovarian; conditions: for Test/Control (%): 72 h
Protocol: as §9, §10, §11

[6] = tested on: OVXF A2780; experiment: as above; conditions: for Test/Control (%): 72 h
Protocol: as §9, §10, §11

CC(C)(O)Cn1nc(-c2ccccc2)c2c(Cl)c(-c3ccccc3)nnc21 [Compound 85]
Absolute IC70 [1]: 418 nM
Relative IC70 [1]: 423 nM
T/C % ([1]; 0.03 μM): 98%
T/C % ([1]; 0.095 μM): 94%
T/C % ([1]; 0.3 μM): 65%
T/C % ([1]; 0.95 μM): 1%
T/C % ([1]; 3.0 μM): 0%
IC50 ([1]; read-out: Absolute IC50): 346 nM
IC50 ([1]; read-out: Relative IC50): 352 nM
Absolute IC70 [2]: 463 nM
Relative IC70 [2]: 463 nM
T/C % ([2]; 0.03 μM): 102%
T/C % ([2]; 0.095 μM): 96%
T/C % ([2]; 0.3 μM): 87%
T/C % ([2]; 0.95 μM): 0%
T/C % ([2]; 3.0 μM): 0%
IC50 ([2]; read-out: Absolute IC50): 405 nM
IC50 ([2]; read-out: Relative IC50): 406 nM
Rel. IC70 [3]: 1630 nM
Test/Control (%) ([3]; 0.003 μM): 97%
Test/Control (%) ([3]; 0.03 μM): 100%
Test/Control (%) ([3]; 0.3 μM): 90%
Test/Control (%) ([3]; 3 μM): 13%
Test/Control (%) ([3]; 30 μM): 1%
Abs. IC70 ([3]; T/C=30%): 1628 nM
IC50 ([3]; T/C=50%, read-out: Abs. IC50): 1020 nM
Bot. (%) ([3]; bottom plateau of curve): 1%
IC50 ([3]; read-out: Rel. IC50): 1030 nM
Top (%) ([3]; top plateau of curve): 99%
Rel. IC70 [4]: 328 nM
Test/Control (%) ([4]; 0.003 μM): 103%
Test/Control (%) ([4]; 0.03 μM): 101%
Test/Control (%) ([4]; 0.3 μM): 35%
Test/Control (%) ([4]; 3 μM): 4%
Test/Control (%) ([4]; 30 μM): 0%
Abs. IC70 ([4]; T/C=30%): 346 nM
IC50 ([4]; T/C=50%, read-out: Abs. IC50): 215 nM
Bot. (%) ([4]; bottom plateau of curve): 1%
IC50 ([4]; read-out: Rel. IC50): 204 nM
Top (%) ([4]; top plateau of curve): 103%
Rel. IC70 [5]: 739 nM
Test/Control (%) ([5]; 0.003 μM): 108%
Test/Control (%) ([5]; 0.03 μM): 106%
Test/Control (%) ([5]; 0.3 μM): 86%
Test/Control (%) ([5]; 3 μM): 2%
Test/Control (%) ([5]; 30 μM): 1%
Abs. IC70 ([5]; T/C=30%): 775 nM
IC50 ([5]; T/C=50%, read-out: Abs. IC50): 553 nM
Bot. (%) ([5]; bottom plateau of curve): 1%
IC50 ([5]; read-out: Rel. IC50): 522 nM
Top (%) ([5]; top plateau of curve): 107%
Rel. IC70 [6]: 1872 nM
Test/Control (%) ([6]; 0.003 μM): 101%
Test/Control (%) ([6]; 0.03 μM): 94%
Test/Control (%) ([6]; 0.3 μM): 101%
Test/Control (%) ([6]; 3 μM): 1%
Test/Control (%) ([6]; 30 μM): 0%
Abs. IC70 ([6]; T/C=30%): 1868 nM
IC50 ([6]; T/C=50%, read-out: Abs. IC50): 1690 nM
Bot. (%) ([6]; bottom plateau of curve): 0%
IC50 ([6]; read-out: Rel. IC50): 1700 nM
Top (%) ([6]; top plateau of curve): 99%
